Results published in the supplement of paper PMC10627819.

How the values were obtained:
[1] = test system: B. subtilis 168; experiment: fitness (endpoint OD595 vs no drug) (fraction); higher = more growth
Summary of the method: (§1)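 Bacterial growth was followed in 384-well plates seeded at OD595 0.01, with 30 µl per well, or 55 µl for S. pneumoniae, in TSB, LB Lennox or CY at 37 °C. OD595 was read every 30 min for 14 h, and each reading had the first reading subtracted as background. Fitness is the background-corrected optical density at entry into stationary phase divided by the robust mean of the no-drug control wells. This ratio is capped at 1.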

[2] = test system: S. aureus DSM 20231; experiment: as above
Summary of the method: as §1

[3] = test system: B. subtilis 168; experiment: Bliss interaction score (quartile over a dose matrix) (fitness difference); higher = more antagonism (negative = synergy)
Summary of the method: (§2)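 Each plate was normalised to the robust mean of its own no-drug wells, using OD595 at entry into stationary phase, with values capped at 1. This normalised growth is the fitness value. The Bliss score is the difference between observed and product-expected fitness, with single-drug fitness inferred from the combination data and quartiles taken over technical, biological and donor/recipient replicates.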

[4] = test system: S. pneumoniae D39V; experiment: as above
Summary of the method: as §2

[5] = test system: S. aureus DSM 20231; experiment: as above
Summary of the method: as §2

[6] = test system: S. aureus Newman; experiment: as above
Summary of the method: as §2
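Throughout, for Bliss interaction score (quartile over a dose matrix): first quartile when negative (synergy) and third quartile when positive (antagonism).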

COc1c(N2C[C@@H]3CCCN[C@@H]3C2)c(F)cc2c(=O)c(C(=O)O)cn(C3CC3)c12 [Moxifloxacin] + COc1cc(Cc2cnc(N)nc2N)cc(OC)c1OC [Trimethoprim]
one replicate
Conditions | fitness
[1], first compound 0.0312 µg/mL, partner 0.1 µg/mL | 0.0166
[1], first compound 0.0312 µg/mL, partner 0.2 µg/mL | 0.0497
[1], first compound 0.0312 µg/mL, partner 0.4 µg/mL | 0.0325
[1], first compound 0.0625 µg/mL, partner 0.1 µg/mL | 0.0397
[1], first compound 0.0625 µg/mL, partner 0.2 µg/mL | 0.0393
[1], first compound 0.0625 µg/mL, partner 0.4 µg/mL | 0.011
[1], first compound 0.125 µg/mL, partner 0.1 µg/mL | 0.0162
[1], first compound 0.125 µg/mL, partner 0.2 µg/mL | 0.0361
[1], first compound 0.125 µg/mL, partner 0.4 µg/mL | 0.0203
[1], first compound 2 µg/mL, partner 1 µg/mL | 0.0073
[1], first compound 2 µg/mL, partner 2 µg/mL | 0.0287
[1], first compound 4 µg/mL, partner 1 µg/mL | 0.0329
[1], first compound 4 µg/mL, partner 2 µg/mL | 0.0297
[1], first compound 8 µg/mL, partner 1 µg/mL | 0.0126
[1], first compound 8 µg/mL, partner 2 µg/mL | 0.0291
[2], first compound 0.0075 µg/mL, partner 0.125 µg/mL | 0.719
[2], first compound 0.015 µg/mL, partner 0.125 µg/mL | 0.627
[2], first compound 0.06 µg/mL, partner 0.125 µg/mL | 0.653
[2], first compound 0.06 µg/mL, partner 0.25 µg/mL | 0.44
[2], first compound 0.06 µg/mL, partner 0.5 µg/mL | 0.191
[2], first compound 0.12 µg/mL, partner 0.125 µg/mL | 0.343
[2], first compound 0.12 µg/mL, partner 0.25 µg/mL | 0.139
[2], first compound 0.12 µg/mL, partner 0.5 µg/mL | 0.0509

fitness
Conditions | partner 0.125 µg/mL | partner 0.25 µg/mL | partner 0.5 µg/mL | partner 1 µg/mL
[1], first compound 0.0312 µg/mL | 0.0627 | 0.103 | 0.0656 | –
[1], first compound 0.0625 µg/mL | 0.0366 | 0.0436 | 0.0539 | –
[1], first compound 0.125 µg/mL | 0.0399 | 0.0294 | 0.0335 | –
[1], first compound 2 µg/mL | – | – | 0.0293 | –
[1], first compound 4 µg/mL | – | – | 0.0245 | –
[1], first compound 8 µg/mL | – | – | 0.0127 | –
[2], first compound 0.0075 µg/mL | – | 0.559 | 0.0549 | 0.0253
[2], first compound 0.015 µg/mL | – | 0.525 | 0.0366 | 0.0226
[2], first compound 0.03 µg/mL | 0.552 | 0.376 | 0.041 | 0.0152

Conditions | Bliss interaction score
[3] | 0.0283
[4] | 0.0963
[5] | -0.0854
[6] | -0.193

COc1cc(Cc2cnc(N)nc2N)cc(OC)c1OC [Trimethoprim] + CC1=C\[C@@H](O)CC(=O)Cc2nc(co2)C(=O)N2CCC=C2C(=O)O[C@H](C(C)C)[C@H](C)/C=C/C(=O)NC\C=C\1 [Virginiamycin M1]
fitness, one replicate
Conditions | partner 0.0625 µg/mL | partner 0.125 µg/mL | partner 0.25 µg/mL | partner 0.5 µg/mL | partner 1 µg/mL
[1], first compound 0.1 µg/mL | 0.85 | 0.855 | 0.991 | – | –
[1], first compound 0.125 µg/mL | 0.738 | 0.722 | 0.71 | – | –
[1], first compound 0.2 µg/mL | 0.755 | 0.808 | 0.865 | – | –
[1], first compound 0.4 µg/mL | 0.57 | 0.483 | 0.576 | – | –
[1], first compound 1 µg/mL | 0.509 | 0.267 | 0.282 | – | –
[1], first compound 2 µg/mL | 0.408 | 0.285 | 0.377 | – | –
[2], first compound 0.125 µg/mL | 0.597 | 0.715 | – | 0.7 | 0.541
[2], first compound 0.25 µg/mL | – | – | – | 0.573 | 0.626
[2], first compound 0.5 µg/mL | – | – | – | 0.155 | 0.204

fitness
Conditions | first compound 0.125 µg/mL | first compound 0.25 µg/mL | first compound 0.5 µg/mL | first compound 1 µg/mL
[1], partner 0.0625 µg/mL | – | – | 0.585 | –
[1], partner 0.125 µg/mL | – | 0.704 | 0.471 | –
[1], partner 0.25 µg/mL | – | – | 0.557 | –
[2], partner 0.0625 µg/mL | – | 0.576 | 0.0684 | 0.0383
[2], partner 0.125 µg/mL | – | 0.584 | 0.0768 | 0.0445
[2], partner 0.25 µg/mL | 0.682 | 0.618 | 0.119 | 0.0595

Conditions | Bliss interaction score
[3] | 0.0852
[4] | 0.0652
[5] | -0.0966
[6] | 0.0354
